Paper PMC8398451, “Molecular Engineering of Curcumin, an Active Constituent of Curcuma longa L. (Turmeric) of the Family Zingiberaceae with Improved Antiproliferative Activity” (Plants, 2021)
Like-named read-outs stand apart in the source and are kept apart here.

Legend:
MDA-MB-231 = experiment: NCI antiproliferative SRB assay, Breast Cancer panel; type: cell-based
LOX IMVI = experiment: NCI antiproliferative SRB assay, Melanoma panel; type: cell-based, Human
HCT-15 = experiment: NCI antiproliferative SRB assay, Colon Cancer panel; type: cell-based, Human
SK-MEL-2 = experiment: NCI antiproliferative SRB assay, Melanoma panel; type: cell-based, Human
[1] = system: Prostate Cancer cell line panel; experiment: NCI antiproliferative assay, panel summary; type: cell-based, Human
UO-31 = experiment: NCI antiproliferative SRB assay, Renal Cancer panel; type: cell-based, Human
OVCAR-3 = experiment: NCI antiproliferative SRB assay, Ovarian Cancer panel; type: cell-based, Human
HCT-116 = experiment: NCI antiproliferative SRB assay, Colon Cancer panel; type: cell-based, Human
SF-268 = experiment: NCI antiproliferative SRB assay, CNS Cancer panel; type: cell-based, Human
COLO 205 = experiment: NCI antiproliferative SRB assay, Colon Cancer panel; type: cell-based, Human
CCRF-CEM = experiment: NCI antiproliferative SRB assay, Leukemia panel; type: cell-based, Human
HCC-2998 = experiment: NCI antiproliferative SRB assay, Colon Cancer panel; type: cell-based, Human
NCI-H460 = experiment: NCI antiproliferative SRB assay, Non-Small Cell Lung Cancer panel; type: cell-based, Human
HL-60(TB) = experiment: cells; type: cell-based
MCF7 = experiment: NCI antiproliferative SRB assay, Breast Cancer panel; type: cell-based, Human
60 NCI cancer cell lines = experiment: NCI antiproliferative assay, summary over all lines; type: cell-based
MOLT-4 = experiment: NCI antiproliferative SRB assay, Leukemia panel; type: cell-based, Human
UACC-62 = experiment: NCI antiproliferative SRB assay, Melanoma panel; type: cell-based, Human
SN 12C = experiment: NCI antiproliferative SRB assay, Renal Cancer panel; type: cell-based, Human
TK-10 = experiment: as above; type: cell-based, Human
SK-MEL-5 = experiment: NCI antiproliferative SRB assay, Melanoma panel; type: cell-based, Human
SK-MEL-28 = experiment: NCI antiproliferative SRB assay, Melanoma panel; type: cell-based, Human
HS 578T = experiment: NCI antiproliferative SRB assay, Breast Cancer panel; type: cell-based, Human
U251 = experiment: NCI antiproliferative SRB assay, CNS Cancer panel; type: cell-based
BT-549 = experiment: NCI antiproliferative SRB assay, Breast Cancer panel; type: cell-based, Human
SNB-19 = experiment: NCI antiproliferative SRB assay, CNS Cancer panel; type: cell-based, Human
[2] = system: Breast Cancer cell line panel; experiment: NCI antiproliferative assay, panel summary; type: cell-based, Human
KM12 = experiment: NCI antiproliferative SRB assay, Colon Cancer panel; type: cell-based, Human
A549/ATCC = experiment: NCI antiproliferative SRB assay, Non-Small Cell Lung Cancer panel; type: cell-based, Human
UACC-257 = experiment: NCI antiproliferative SRB assay, Melanoma panel; type: cell-based, Human
[3] = Homo sapiens, 5-dose 0.01-100 µM, read-out: LC50 (the source's name)
[4] = Homo sapiens, 5-dose 0.01-100 µM
[5] = Homo sapiens, 5-dose assay, read-out: Sub Panel MID b (mean GI50 of panel)
[6] = mean over cell lines, one dose 10 µM

COc1ccc(NC(=O)n2nc(/C=C/c3ccc(O)c(OC)c3)cc2/C=C/c2ccc(O)c(OC)c2)cc1 [3b]
TGI (MDA-MB-231; 5-dose 0.01-100 µM): 83.5 µM | GI50 (MDA-MB-231; Homo sapiens): 4.94 µM | CC50 (MDA-MB-231; [3]): > 100 µM | %GI (MDA-MB-231; one dose 10 µM): 63.47% | GP (growth percent) (MDA-MB-231; one dose 10 µM): 36.53 | TGI (LOX IMVI; 5-dose 0.01-100 µM): >100 µM | GI50 (LOX IMVI; [4]): 3.95 µM | CC50 (LOX IMVI; [3]): > 100 µM | %GI (LOX IMVI; one dose 10 µM): 72.41% | GP (growth percent) (LOX IMVI; one dose 10 µM): 27.59 | TGI (HCT-15; 5-dose 0.01-100 µM): >100 µM | GI50 (HCT-15; [4]): 2.98 µM | CC50 (HCT-15; [3]): > 100 µM | GP (growth percent) (HCT-15; one dose 10 µM): 13.17 | TGI (SK-MEL-2; 5-dose 0.01-100 µM): 18.1 µM | GI50 (SK-MEL-2; [4]): 3.23 µM | CC50 (SK-MEL-2; [3]): > 100 µM | %GI (SK-MEL-2; one dose 10 µM): 78.62% | GP (growth percent) (SK-MEL-2; one dose 10 µM): 21.38 | Mean % GI ([1]; 10 µM): 72.17% | Selectivity Ratio (MID a:MID b) ([1]; 5-dose assay): 1.07 | GI50 [1, 5]: 4.55 µM | TGI (UO-31; 5-dose 0.01-100 µM): 36.4 µM | GI50 (UO-31; [4]): 1.52 µM | LC50 (50% lethal concentration) (UO-31; [4]): > 100 µM | %GI (UO-31; one dose 10 µM): 77.33% | GP (growth percent) (UO-31; one dose 10 µM): 22.67 | TGI (OVCAR-3; 5-dose 0.01-100 µM): 8.40 µM | GI50 (OVCAR-3; [4]): 2.98 µM | CC50 (OVCAR-3; [3]): > 100 µM | %GI (OVCAR-3; one dose 10 µM): 86.38% | GP (growth percent) (OVCAR-3; one dose 10 µM): 13.62 | TGI (HCT-116; 5-dose 0.01-100 µM): 42.9 µM | GI50 (HCT-116; [4]): 3.22 µM | CC50 (HCT-116; [3]): > 100 µM | %GI (HCT-116; one dose 10 µM): 90.87% | GP (growth percent) (HCT-116; one dose 10 µM): 9.13 | TGI (SF-268; 5-dose 0.01-100 µM): 36.4 µM | GI50 (SF-268; [4]): 3.21 µM | CC50 (SF-268; [3]): > 100 µM | %GI (SF-268; one dose 10 µM): 58.19% | GP (growth percent) (SF-268; one dose 10 µM): 41.81 | TGI (COLO 205; 5-dose 0.01-100 µM): 44.3 µM | GI50 (COLO 205; [4]): 16.2 µM | CC50 (COLO 205; [3]): > 100 µM | %GI (COLO 205; one dose 10 µM): −6.58% | GP (growth percent) (COLO 205; one dose 10 µM): 106.58 | TGI (CCRF-CEM; 5-dose 0.01-100 µM): 32.7 µM | GI50 (CCRF-CEM; [4]): 2.34 µM | CC50 (CCRF-CEM; [3]): > 100 µM | %GI (CCRF-CEM; one dose 10 µM): 88.23% | GP (growth percent) (CCRF-CEM; one dose 10 µM): 11.77 | TGI (HCC-2998; 5-dose 0.01-100 µM): >100 µM | GI50 (HCC-2998; [4]): 5.78 µM | CC50 (HCC-2998; [3]): > 100 µM | %GI (HCC-2998; one dose 10 µM): 25.09% | GP (growth percent) (HCC-2998; one dose 10 µM): 74.91 | TGI (NCI-H460; 5-dose 0.01-100 µM): 31.4 µM | GI50 (NCI-H460; [4]): 4.24 µM | CC50 (NCI-H460; [3]): > 100 µM | %GI (NCI-H460; one dose 10 µM): 85.78% | GP (growth percent) (NCI-H460; one dose 10 µM): 14.22 | TGI (HL-60(TB); 5-dose 0.01-100 µM): 6.69 µM | GI50 (HL-60(TB); [4]): 2.55 µM | CC50 (HL-60(TB); [3]): > 100 µM | %GI (HL-60(TB); one dose 10 µM): 94.68% | GP (growth percent) (HL-60(TB); one dose 10 µM): 5.32 | TGI (MCF7; 5-dose 0.01-100 µM): 17.0 µM | GI50 (MCF7; [4]): 3.3 µM | CC50 (MCF7; [3]): > 100 µM | %GI (MCF7; one dose 10 µM): 84.37% | GP (growth percent) (MCF7; one dose 10 µM): 15.63 | GI50 (60 NCI cancer cell lines; Homo sapiens, read-out: GI50 values, range over cell lines): 1.25 to 18.8 µM | CC50 (60 NCI cancer cell lines; Homo sapiens, 5-dose assay, read-out: LC50 over cell lines): > 100 µM | GI50 (60 NCI cancer cell lines; Homo sapiens, 5-dose assay, read-out: MID a (mean GI50 of 60 NCI cancer cell lines)): 4.89 µM | Mean % GI (60 NCI cancer cell lines; [6]): 66.46% | Mean GP (60 NCI cancer cell lines; [6]): 33.54 | TGI (MOLT-4; 5-dose 0.01-100 µM): 13.3 µM | GI50 (MOLT-4; [4]): 2.87 µM | CC50 (MOLT-4; [3]): > 100 µM | %GI (MOLT-4; one dose 10 µM): 87.76% | GP (growth percent) (MOLT-4; one dose 10 µM): 12.24 | TGI (UACC-62; 5-dose 0.01-100 µM): 6.91 µM | GI50 (UACC-62; [4]): 2.14 µM | CC50 (UACC-62; [3]): > 100 µM | %GI (UACC-62; one dose 10 µM): 74.53% | GP (growth percent) (UACC-62; one dose 10 µM): 25.47 | TGI (SN 12C; 5-dose 0.01-100 µM): 33.7 µM | GI50 (SN 12C; Homo sapiens, SN12C, 5-dose 0.01-100 µM): 3.05 µM | CC50 (SN 12C; Homo sapiens, SN12C, 5-dose 0.01-100 µM, read-out: LC50 (the source's name)): > 100 µM | %GI (SN 12C; one dose 10 µM): 68.55% | GP (growth percent) (SN 12C; one dose 10 µM): 31.45 | TGI (TK-10; 5-dose 0.01-100 µM): 95.3 µM | GI50 (TK-10; [4]): 10.2 µM | CC50 (TK-10; [3]): > 100 µM | %GI (TK-10; one dose 10 µM): 36.16% | GP (growth percent) (TK-10; one dose 10 µM): 63.84 | TGI (SK-MEL-5; 5-dose 0.01-100 µM): 16.1 µM | GI50 (SK-MEL-5; [4]): 3.67 µM | CC50 (SK-MEL-5; [3]): > 100 µM | %GI (SK-MEL-5; one dose 10 µM): 90.96% | GP (growth percent) (SK-MEL-5; one dose 10 µM): 9.04 | TGI (SK-MEL-28; 5-dose 0.01-100 µM): 92.7 µM | GI50 (SK-MEL-28; [4]): 3.52 µM | CC50 (SK-MEL-28; [3]): > 100 µM | %GI (SK-MEL-28; one dose 10 µM): 65.47% | GP (growth percent) (SK-MEL-28; one dose 10 µM): 34.53 | TGI (HS 578T; 5-dose 0.01-100 µM): 61.9 µM | GI50 (HS 578T; [4]): 6.77 µM | CC50 (HS 578T; [3]): > 100 µM | %GI (HS 578T; one dose 10 µM): 71.29% | GP (growth percent) (HS 578T; one dose 10 µM): 28.71 | GI50 (U251; Homo sapiens, U-251): 3.55 µM | CC50 (U251; Homo sapiens, U-251, U251, 5-dose 0.01-100 µM, read-out: LC50 (the source's name)): > 100 µM | TGI (U251; U251, 5-dose 0.01-100 µM): 20.9 µM | %GI (U251; U251, one dose 10 µM): 73.97% | GP (growth percent) (U251; U251, one dose 10 µM): 26.03 | TGI (BT-549; 5-dose 0.01-100 µM): 29.5 µM | GI50 (BT-549; [4]): 2.49 µM | CC50 (BT-549; [3]): > 100 µM | %GI (BT-549; one dose 10 µM): 68.63% | GP (growth percent) (BT-549; one dose 10 µM): 31.37 | TGI (SNB-19; 5-dose 0.01-100 µM): 86.7 µM | GI50 (SNB-19; [4]): 5.28 µM | CC50 (SNB-19; [3]): > 100 µM | %GI (SNB-19; one dose 10 µM): 61.15% | GP (growth percent) (SNB-19; one dose 10 µM): 38.85 | Mean % GI ([2]; 10 µM): 69.71% | Selectivity Ratio (MID a:MID b) ([2]; 5-dose assay): 1.19 | GI50 [2, 5]: 4.12 µM | TGI (KM12; 5-dose 0.01-100 µM): 20.7 µM | GI50 (KM12; [4]): 3.19 µM | CC50 (KM12; [3]): > 100 µM | %GI (KM12; one dose 10 µM): 82.11% | GP (growth percent) (KM12; one dose 10 µM): 17.89 | TGI (A549/ATCC; 5-dose 0.01-100 µM): 97.9 µM | GI50 (A549/ATCC; [4]): 5.5 µM | LC50 (50% lethal concentration) (A549/ATCC; [4]): > 100 µM | %GI (A549/ATCC; one dose 10 µM): 72.71% | GP (growth percent) (A549/ATCC; one dose 10 µM): 27.29 | TGI (UACC-257; 5-dose 0.01-100 µM): 64.8 µM | GI50 (UACC-257; [4]): 16.7 µM | CC50 (UACC-257; [3]): > 100 µM | %GI (UACC-257; one dose 10 µM): 24.78% | GP (growth percent) (UACC-257; one dose 10 µM): 75.22
